Laboratory results as given in US12624068B2, “Exon skipping by peptide nucleic acid derivatives” (OliPass Corporation, priority 2016, dated 2026).
[C(1O2)] = modified PNA monomer acting as cytosine, C(pOq) type, 1O2; [A(5)] = modified PNA monomer acting as adenine, A(p) type, p=5; [G(6)] = modified PNA monomer acting as guanine, G(p) type, p=6; {Fethoc} = N-terminal Fethoc cap; {NH2} = C-terminal amide

Legend:
[1] = test system: mouse dystrophin pre-mRNA; assay: Dystrophin nested PCR (Method A) in muscles of mdx mice; assay type: in vivo
Description: “DMD-ASO 1” and “DMD-ASO 4” were evaluated for their ability to induce exon skipping in muscles of mdx mice by subcutaneous administration as follows. [ASO Treatment & Sampling Muscle Tissues] The injection solutions were prepared by diluting an aqueous mother stock solution of “DMD-ASO 1” or “DMD-ASO 4” in PBS to 500 nM. Male mdx mice were subcutaneously administered with vehicle only (negative control), “DMD-ASO 1” or “DMD-ASO 4” at 2 mL/Kg, 2× per day (BID) for 3 days. One day after the final dose, the animals were anesthetized with zoletil/rompun, and sacrificed to sample muscle tissues including the heart, diaphragm, gatrocnemius, quadriceps, and triceps. [RNA Extraction] Muscle samples were homogenized by grinding in a tube kept on ice, and subjected to total RNA extraction with 1 mL trizol reagent (Invitrogen) per ca 100 mg muscle tissue. [cDNA Synthesis by One-Step RT-PCR] 500 ng of RNA template was used in a 25 μL reverse transcription reaction using Super Script® One-Step RT-PCR kit with Platinum® Taq polymerase (Cat. Number 10928-042, Invitrogen) and a set of exon-specific primers [DMD-exon 21_forward: (5'→3') […] NO: 103); and DMD-exon 25_reverse: (5'→3') […] [Nested PCR Amplification] 1 μL of cDNA was further amplified in a 20 μL nested PCR (Cat. Number K2612, Bioneer) reaction against a set of primers [DMD-exon 22n_forward: (5'→3') […] NO: 105); and DMD-exon 25n_reverse: (5'→3') […] [Identification of Exon Skipping Product] The skipping of exon 23 was detected only in the animals treated with “DMD-ASO 1” and “DMD-ASO 4”. […] Mdx mice subcutaneously received “DMD-ASO 1” at 0 (negative control) or 10 pmole/Kg, 2× per day for 5 days. (2 animals per group) One day after the final dose, the animals were sacrificed for tissue sampling. The triceps samples were evaluated for the skipping of exon 23 according to the nested RT-PCR method described in “DMD Example 1”.

[2] = test system: mdx mice; assay: Grip test in mdx mice chronically administered; assay type: in vivo, mouse; conditions: mdx mice, 10, 50 or 200 pmole/Kg subcutaneous chronic, Week 0 to 30
Description: “DMD-ASO 1” was evaluated by chronically administering to mdx mice for its ability to improve muscle function by grip test, to induce exon skipping, to upregulate the expression of the full-length dystrophin (i.e., dystrophin protein with the C-terminus encoded) by IHC, and to improve the muscular integrity by histopathology with H&E staining as described below.
[Grouping & ASO Treatment] Male mdx mice (7 weeks old) were randomly assigned to 4 groups of 0 (mdx negative control), 10, 50, and 200 pmole/Kg “DMD-ASO 1” based on individual grip strength scores by grip test. (N=12 per group) A satellite group of 12 male C57BL/6 mice (7 weeks old) was included in this study as the wild type negative control group for the full-length dystrophin expression level.
The 50 and 200 pmole/Kg group subcutaneously received “DMD-ASO 1” as dissolved in PBS, 2× per week until the final sacrifice in Week 43. In the meantime, the 10 pmole/Kg group subcutaneously received “DMD-ASO 1” initially 2× per week during Week 0 to 8, and 3× per week afterwards to increase the ASO exposure.
[Muscle Function by Grip Test] Muscle function was evaluated on a weekly basis by grip strength on a grip strength-meter (Cat. Number 47,200, Ugo Basile) according to the literature. [J. Appl. […] The grip strength scores by group were evaluated for statistical significance by student's t-test against the mdx negative control group.

[3] = test system: SCN9A mRNA; assay: SCN9A nested qPCR by SYBR Green in PC3 cells; assay type: cell-based, human; conditions: 24 hours
Description: “SCN-ASO 7” was evaluated for its ability to inhibit the expression of the human SCN9A mRNA in PC3 cells by qPCR against a set of exon-specific primers as follows. [Cell Culture & ASO Treatment] PC3 cells grown in 60 mm culture dish containing 5 mL culture medium were incubated with “SCN-ASO 7” for 24 hours at 0 (negative control), 10, 100 or 1,000 zM. (2 culture dishes per concentration) [RNA Extraction] […] [cDNA Synthesis by One Step RT-PCR] […] NO: 78); and SCN-exon 9_reverse: (5'→3') […] NO: 79)]. […] [Nested qPCR Amplification] […] NO: 80); SCN-exon 4_reverse: (5'→3') […] NO: 81); SCN-exon 5_forward: (5'→3') […] NO: 82); SCN-exon 5_reverse: (5'→3') […] NO: 83); SCN-exon 6_forward: (5'→3') […] NO: 84); SCN-exon 6_reverse: (5'→3') […] NO: 85)]. The PCR reactions were probed with SYBR Green (Takara, Japan). […] “SCN-ASO 3” was evaluated for its ability to inhibit the expression of the full-length SCN9A mRNA in PC3 cells according to the protocol described in “SCN9A Example 2”, unless noted otherwise. “SCN-ASO 8” was evaluated for its ability to inhibit the expression of the full-length SCN9A mRNA in PC3 cells according to the protocol described in “SCN9A Example 2”, unless noted otherwise.

Substance | skipping of dystrophin exon 23 (nested PCR Method A) ([1]; subcutaneous 10 pmole/Kg, 2× per day for 5 days, triceps) | skipping of dystrophin exon 23 (nested PCR Method A) ([1]; subcutaneous 1,000 pmole/Kg BID for 3 days, quadriceps and gastrocnemius) | increase of grip strength compared to the mdx negative control group [2] | decrease of expression levels of SCN9A exons 4-6 (SYBR Green) ([3]; PC3 cells, 10 zM) [%] | decrease of expression levels of SCN9A exons 4-6 (SYBR Green) ([3]; PC3 cells, 100 zM) [%] | decrease of expression levels of SCN9A exons 4-6 (SYBR Green) ([3]; PC3 cells, 1,000 zM)
Fethoc-A(5)GA-G(6)CC(1O2)-TCA-A(5)AA(5)-T-NH2 (antisense AGAGCCTCAAAAT; Fethoc N-cap, C-terminal amide, chemistry not fully specified) [DMD-ASO 1] | induced the skipping of exon 23 | detected | 30-50% | – | – | –
Fethoc-AC(1O2)T-TA(5)C-G(6)CA-A(5)AA(5)-AC(1O2)A-A(5)-NH2 (ACTTACGCAAAAACAA; all peptide nucleic acid (PNA), [C(1O2)] at 2, 14, [A(5)] at 5, 10, 12, 16, [G(6)] at 7, 5' {Fethoc}, 3' {NH2}; peptide nucleic acid written N to C) [SCN-ASO 7] | – | – | – | ~70 | 40 | 20-30%
